Read-outs that look alike come from different tables or passages of the source. Blank lines part the entries; values can stand above or below the molecule they belong to.
Tests used:
OATP1B1 = biological target: T1, OATP1B1 (Homo sapiens, UniProt Q9Y6L6); conditions: in vitro; cited from earlier work
T1 sequence (Q9Y6L6 1-691): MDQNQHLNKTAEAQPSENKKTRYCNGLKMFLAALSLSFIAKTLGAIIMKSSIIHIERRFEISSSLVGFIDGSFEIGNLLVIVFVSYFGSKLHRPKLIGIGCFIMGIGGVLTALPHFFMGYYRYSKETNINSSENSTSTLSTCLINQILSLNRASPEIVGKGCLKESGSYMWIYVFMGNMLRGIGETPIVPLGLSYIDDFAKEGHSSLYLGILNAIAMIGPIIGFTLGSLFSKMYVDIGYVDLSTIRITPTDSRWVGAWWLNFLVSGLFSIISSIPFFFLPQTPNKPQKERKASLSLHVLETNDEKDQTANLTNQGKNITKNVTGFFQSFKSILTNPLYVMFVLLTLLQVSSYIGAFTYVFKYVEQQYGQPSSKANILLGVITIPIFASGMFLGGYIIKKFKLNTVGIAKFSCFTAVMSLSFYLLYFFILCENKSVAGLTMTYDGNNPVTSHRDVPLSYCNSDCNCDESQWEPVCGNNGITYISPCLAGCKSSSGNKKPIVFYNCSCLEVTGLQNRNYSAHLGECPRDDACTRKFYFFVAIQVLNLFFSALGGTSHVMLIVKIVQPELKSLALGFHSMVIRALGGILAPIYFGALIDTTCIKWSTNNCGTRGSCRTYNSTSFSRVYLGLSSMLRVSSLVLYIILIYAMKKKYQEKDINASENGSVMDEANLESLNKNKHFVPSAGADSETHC

OATP1B3 = biological target: T2, OATP1B3 (Homo sapiens, UniProt Q9NPD5); conditions: in vitro; cited from earlier work
T2 sequence (Q9NPD5 1-702): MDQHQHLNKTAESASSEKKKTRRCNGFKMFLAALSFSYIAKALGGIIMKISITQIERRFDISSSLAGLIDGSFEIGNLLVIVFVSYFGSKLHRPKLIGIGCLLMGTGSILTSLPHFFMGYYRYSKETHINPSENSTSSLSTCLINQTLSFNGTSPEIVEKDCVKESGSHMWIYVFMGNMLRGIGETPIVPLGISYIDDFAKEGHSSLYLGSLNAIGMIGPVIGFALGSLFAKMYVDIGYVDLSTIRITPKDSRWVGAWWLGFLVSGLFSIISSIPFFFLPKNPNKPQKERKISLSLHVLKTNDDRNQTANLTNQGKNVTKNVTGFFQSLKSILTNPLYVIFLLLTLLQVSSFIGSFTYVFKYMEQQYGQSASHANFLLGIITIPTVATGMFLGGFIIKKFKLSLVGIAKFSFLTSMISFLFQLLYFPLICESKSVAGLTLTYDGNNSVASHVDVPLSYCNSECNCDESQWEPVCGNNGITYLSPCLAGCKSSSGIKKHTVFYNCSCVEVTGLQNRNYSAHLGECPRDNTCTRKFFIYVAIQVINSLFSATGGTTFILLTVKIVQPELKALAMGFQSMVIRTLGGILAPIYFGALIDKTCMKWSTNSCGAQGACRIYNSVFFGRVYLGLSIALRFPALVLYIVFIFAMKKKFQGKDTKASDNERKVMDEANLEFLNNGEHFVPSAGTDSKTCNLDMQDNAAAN

[1] = biological target: P-gp/MDR1 efflux transporter (Homo sapiens, UniProt P08183); conditions: in vitro; cited from earlier work
Sequence of P-gp/MDR1 efflux transporter (P08183 whole entry): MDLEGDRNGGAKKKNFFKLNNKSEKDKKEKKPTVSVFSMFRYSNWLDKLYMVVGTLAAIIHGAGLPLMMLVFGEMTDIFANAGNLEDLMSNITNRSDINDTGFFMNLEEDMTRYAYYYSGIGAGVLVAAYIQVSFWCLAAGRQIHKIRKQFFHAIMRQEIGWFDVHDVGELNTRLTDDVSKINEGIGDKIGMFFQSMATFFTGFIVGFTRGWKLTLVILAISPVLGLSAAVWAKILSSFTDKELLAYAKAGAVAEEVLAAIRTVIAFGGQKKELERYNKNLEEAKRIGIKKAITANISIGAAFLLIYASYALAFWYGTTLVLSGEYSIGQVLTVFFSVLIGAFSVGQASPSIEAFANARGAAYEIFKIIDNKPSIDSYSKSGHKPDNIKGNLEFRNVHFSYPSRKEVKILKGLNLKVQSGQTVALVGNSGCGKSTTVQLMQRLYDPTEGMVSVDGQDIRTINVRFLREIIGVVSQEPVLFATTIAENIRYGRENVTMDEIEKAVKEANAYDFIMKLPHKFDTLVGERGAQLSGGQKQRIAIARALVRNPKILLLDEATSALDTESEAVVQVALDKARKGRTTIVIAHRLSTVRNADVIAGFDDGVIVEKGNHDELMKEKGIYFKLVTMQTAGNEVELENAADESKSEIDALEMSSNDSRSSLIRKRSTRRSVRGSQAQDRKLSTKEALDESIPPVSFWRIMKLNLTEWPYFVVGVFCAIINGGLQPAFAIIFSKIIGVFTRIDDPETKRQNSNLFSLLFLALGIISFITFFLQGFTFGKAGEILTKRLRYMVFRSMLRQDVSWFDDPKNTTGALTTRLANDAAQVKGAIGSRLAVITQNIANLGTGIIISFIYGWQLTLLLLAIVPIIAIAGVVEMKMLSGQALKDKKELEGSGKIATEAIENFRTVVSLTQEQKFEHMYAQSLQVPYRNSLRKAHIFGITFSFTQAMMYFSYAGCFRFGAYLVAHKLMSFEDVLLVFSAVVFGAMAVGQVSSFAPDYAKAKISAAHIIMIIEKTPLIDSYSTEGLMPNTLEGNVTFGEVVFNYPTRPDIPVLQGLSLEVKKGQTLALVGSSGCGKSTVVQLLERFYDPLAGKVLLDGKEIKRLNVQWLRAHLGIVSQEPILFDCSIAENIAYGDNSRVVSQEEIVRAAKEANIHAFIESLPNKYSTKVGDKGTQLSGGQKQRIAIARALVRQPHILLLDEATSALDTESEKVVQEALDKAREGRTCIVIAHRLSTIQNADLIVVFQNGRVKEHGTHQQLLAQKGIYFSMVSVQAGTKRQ

BCRP = biological target: T3, BCRP (Homo sapiens, UniProt Q9UNQ0); conditions: in vitro; cited from earlier work
T3 sequence (Q9UNQ0 1-655): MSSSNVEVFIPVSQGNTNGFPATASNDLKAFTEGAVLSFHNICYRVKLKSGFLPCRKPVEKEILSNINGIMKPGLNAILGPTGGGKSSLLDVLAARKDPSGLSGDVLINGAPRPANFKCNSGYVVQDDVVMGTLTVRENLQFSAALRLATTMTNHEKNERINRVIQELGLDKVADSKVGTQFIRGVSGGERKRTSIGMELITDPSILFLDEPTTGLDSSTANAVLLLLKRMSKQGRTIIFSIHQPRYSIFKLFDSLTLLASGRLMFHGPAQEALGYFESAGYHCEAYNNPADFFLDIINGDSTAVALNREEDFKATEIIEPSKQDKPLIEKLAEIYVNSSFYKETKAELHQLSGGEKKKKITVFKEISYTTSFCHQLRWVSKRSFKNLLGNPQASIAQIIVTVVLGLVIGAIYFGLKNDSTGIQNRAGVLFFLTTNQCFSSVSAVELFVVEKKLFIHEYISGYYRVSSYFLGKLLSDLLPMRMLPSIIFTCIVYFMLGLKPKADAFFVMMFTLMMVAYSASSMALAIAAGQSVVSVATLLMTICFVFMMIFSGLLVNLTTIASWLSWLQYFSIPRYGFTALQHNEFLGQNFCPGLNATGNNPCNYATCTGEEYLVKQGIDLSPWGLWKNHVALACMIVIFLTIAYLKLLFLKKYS

[2] = Phase 1 two-period crossover study of the effect of quinidine on the pharmacokinetics of opicapone (plasma PK); format: in vivo, human; conditions: for AUC(0-inf) / AUC(0-t) / Cmax / half-life: plasma, 50 mg
Source text: A Phase 1, Randomized, Open-Label, Two-Period Crossover Study to Assess the Effect of Quinidine on the Pharmacokinetics of Opicapone (OPC) in Healthy Subjects
This was a Phase 1, randomized, open-label, 2-period crossover drug interaction study of the effect of quinidine on the PK of OPC in healthy subjects. A total of 20 subjects (10 males and 10 females) were randomized to 1 of 2 treatment sequences (5 males and 5 females per sequence) as depicted in the table below. Randomization to treatment sequence were stratified by gender. Enrolled subjects received a single dose of each of the following treatments under fasted conditions: OPC 50 mg and quinidine 600 mg plus OPC 50 mg (OPC will be administered 1 hour after quinidine). There was be a 14-day washout between the doses in each treatment period.
Subjects fasted overnight for at least 10 hours before OPC dosing on Day 1 and continued to fast for an additional 4 hours after OPC dosing.
Blood samples for the assessment of plasma concentrations of OPC and its metabolites were collected within 30 minutes predose and approximately 0.5, 1, 1.5, 2, 3, 4, 6, 8, 10, 12, 24, 48, 72, 96, and 120 hours postdose. The PK parameters to be calculated included the following for OPC and its metabolites:
Blood samples for the assessment of plasma concentrations of OPC and its metabolites were collected within 30 minutes predose and approximately 0.5, 1, 1.5, 2, 3, 4, 6, 8, 10, 12, 24, 48, 72, 96, and 120 hours postdose.
The following plasma PK parameters were calculated only for OPC: • Apparent systemic clearance after oral administration (CL/F). • Apparent volume of distribution during the terminal phase after oral administration (Vz/F).
PK parameters for OPC and its metabolites were calculated using noncompartmental methods. […] Safety data will be summarized with descriptive statistics.
Pharmacokinetic parameters (AUC0-inf, AUC0-t, and Cmax) for Opicapone were natural log-transformed prior to analysis and evaluated separately using a linear mixed effects model with fixed effects terms for sequence, period, and treatment. […] CV %=SQRT[exp(s^2)−1]×100 and ‘s’ is the standard deviation of the log-transformed values.

SMILES: Cc1c(Cl)c(C)[n+]([O-])c(Cl)c1-c1noc(-c2cc(OS(=O)(=O)O)c(O)c([N+](=O)[O-])c2)n1 [BIA 9-1103]
transported by OATP1B1 (OATP1B1): transported
transported by OATP1B3 (OATP1B3): transported
efflux transported by P-gp (P-gp/MDR1 substrate) [1]: not a substrate
efflux transported by BCRP (BCRP): efflux transported

Tmax ([2]; both sexes, human, oral, opicapone in plasma, healthy subjects, fasted, single dose OPC 50 mg, Median): 91.8 min
AUC(0-inf) ([2]; both sexes, human, oral, opicapone in plasma, healthy subjects, fasted, single dose OPC 50 mg, Geometric Mean (descriptive), read-out: AUC(0-inf), Geometric Mean): 2060 ng·h/mL
AUC(0-t) ([2]; both sexes, human, oral, opicapone in plasma, healthy subjects, fasted, single dose OPC 50 mg, Geometric Mean (descriptive), read-out: AUC(0-last), Geometric Mean): 1960 ng·h/mL
Cmax ([2]; both sexes, human, oral, opicapone in plasma, healthy subjects, fasted, single dose OPC 50 mg, Geometric Mean (descriptive), read-out: Cmax, Geometric Mean): 766 ng/mL
half-life ([2]; both sexes, human, oral, opicapone in plasma, healthy subjects, fasted, single dose OPC 50 mg, Geometric Mean (descriptive), read-out: t½, Geometric Mean (converted)): 53.2 min
AUC(0-inf) ([2]; both sexes, human, oral, opicapone in plasma, healthy subjects, fasted, single dose OPC 50 mg, Mean, read-out: AUC(0-inf), Mean): 2140 ng·h/mL
AUC(0-t) ([2]; both sexes, human, oral, opicapone in plasma, healthy subjects, fasted, single dose OPC 50 mg, Mean, read-out: AUC(0-last), Mean): 2040 ng·h/mL
Cmax ([2]; both sexes, human, oral, opicapone in plasma, healthy subjects, fasted, single dose OPC 50 mg, Mean, read-out: Cmax, Mean): 804 ng/mL
half-life ([2]; both sexes, human, oral, opicapone in plasma, healthy subjects, fasted, single dose OPC 50 mg, Mean, read-out: t½, Mean (converted)): 55.1 min
AUC(0-inf) ([2]; both sexes, human, oral, opicapone in plasma, healthy subjects, fasted, single dose OPC 50 mg, Median, read-out: AUC(0-inf), Median): 2020 ng·h/mL
AUC(0-t) ([2]; both sexes, human, oral, opicapone in plasma, healthy subjects, fasted, single dose OPC 50 mg, Median, read-out: AUC(0-last), Median): 1940 ng·h/mL
Cmax ([2]; both sexes, human, oral, opicapone in plasma, healthy subjects, fasted, single dose OPC 50 mg, Median, read-out: Cmax, Median): 782 ng/mL
half-life ([2]; both sexes, human, oral, opicapone in plasma, healthy subjects, fasted, single dose OPC 50 mg, Median, read-out: t½, Median (converted)): 55.9 min
AUC(0-inf) ([2]; both sexes, human, oral, opicapone, geometric mean from linear mixed effects model, OPC 50 mg, healthy subjects, read-out: AUC0-inf, GM): 2030 ng·h/mL
AUC(0-t) ([2]; both sexes, human, oral, opicapone, geometric mean from linear mixed effects model, OPC 50 mg, healthy subjects, read-out: AUC0-t, GM): 1960 ng·h/mL
Cmax ([2]; both sexes, human, oral, opicapone, geometric mean from linear mixed effects model, OPC 50 mg, healthy subjects, read-out: Cmax, GM): 766 ng/mL
decrease in opicapone exposure ([2]; in those also being administered quinidine): approximately 30%
Tlag, Median ([2]; opicapone in plasma, healthy subjects, fasted, single dose OPC 50 mg, Median): 0.00 h
SMILES: Cc1c(Cl)c(C)[n+]([O-])c(Cl)c1-c1noc(-c2cc(O)c(O)c([N+](=O)[O-])c2)n1 [OPC, 5-[3-(2,5-dichloro-4,6-dimethyl-1-oxy-pyridin-3-yl)-[1,2,4]oxadiazol-5-yl]-3-nitrobenzene-1,2-diol]
transported by OATP1B1 (OATP1B1): not transported
transported by OATP1B3 (OATP1B3): transported
efflux transported by P-gp (P-gp/MDR1 substrate) [1]: efflux transported
efflux transported by BCRP (BCRP): efflux transported

From patent US12097193B2, “Methods for the administration of COMT inhibitors” (BIAL—PORTELA & CA, S.A., priority 2018, dated 2024)
